Legend:
rats = test: Embryotoxic effect in rats, 'another test' at equimolar doses; type: in vivo, rat
[1] = tested on: pregnant Sprague-Dawley rats; test: Embryotoxic activity in pregnant rats (antimitotic test according to Delatour and Richard), dose series; conditions: orally; for Embryo-toxicity %: daily from the 8th to the 15th day of gestation; for # Fetus: 8th to 15th day of gestation

Compound | % (embryotoxic effect) (rats; Oral Dose Per Day 5.05 mg/kg) [%] | Embryo-toxicity % ([1]; 3.03 mg/kg/day) [%] | Embryo-toxicity % ([1]; 5.05 mg/kg/day) [%] | % (embryotoxic effect) (rats; Oral Dose Per Day 5.02 mg/kg) [%] | Foet./ Implant (rats; Oral Dose Per Day 5.02 mg/kg) | # Fetus ([1]; 7.5 mg/kg/day, 40 implantations) | Embryo-toxicity % ([1]; 7.5 mg/kg/day) [%] | # Fetus ([1]; 15 mg/kg/day, 30 implantations) | Embryo-toxicity % ([1]; 15 mg/kg/day) [%] | # Fetus ([1]; 30 mg/kg/day, 28 implantations) | Embryo-toxicity % ([1]; 30 mg/kg/day) [%]
COC(=O)Nc1nc2ccc(C(O)c3cccs3)cc2[nH]1 (racemic) [I, methyl [5-(2-thienylhydroxymethyl)-lH-benzimidazol-2-yl]-carbamate] | 100 | 12.06 | 100 |  |  |  |  |  |  |  | 
COC(=O)Nc1nc2ccc(C(=O)c3cccs3)cc2[nH]1 [II, Methyl 5-[(2-thenoyl)-lH-benzimidazol-2-yl]-carbamate] |  |  |  | 3.5 | 55/57 | 0 | 100 | 0 | 100 | 0 | 100

Reference: patent EP0024842A1, “Methyl (5-(2-thienylhydroxymethyl)-1H-benzimidazol-2-yl) carbamate, process for its preparation and compositions containing it” (priority 1979, dated 1981)
